Reference: US20070015803A1, “Methods for treating diseases through interruption of protein maturation, compounds that inhibit the function of molecular chaperones such as protein disulfide isomerases or interfere with glycosylation, pharmaceutical compositions comprising them, and screening methods for identifying therapeutic …” (Romark Laboratories L.C., priority 2005, published 2007)

Assays:
[1] = system: IL-1β, IL-6 and TNF-alpha; test: Cytokine suppressing ability in cell culture; format: cell-based; conditions: in particular IL-1β
Neospora caninum [2] = test: In vitro or cell culture activity against Neospora caninum (compounds 1-13); format: cell-based
Source text: (§1) The following compounds numbered 1-13 in the table below have been synthesized and tested in vitro or in cell culture against Neospora caninum (a protozoan), para-influenza virus, sendai virus, influenza A virus, and/or rhinovirus. In addition, applicant notes that compounds 12 and 13 have shown good activity against viruses and Neospora caninum.

[3] = system: para-influenza virus, sendai virus, influenza A virus, and/or rhinovirus; test: In vitro or cell culture activity against viruses; format: cell-based
Source text: as §1

[4] = system: human colon cancer cell lines; test: Replication of human colon cancer cell lines and other cell lines; format: cell-based; conditions: human colon cancer cell lines and a variety of other cell lines
Source text: (§2) Cell culture studies of the mechanism of action by which tizoxanide suppresses rotavirus infection have been carried out. […] Studies have shown that tizoxanide binds to PDI-4 of Giardia intestinalis (an extra-cellular protozoan) and that tizoxanide is effective in vitro against Giardia intestinalis. • b. Studies have shown that tizoxanide binds to PDI isolated from Neospora caninum (intracellular protozoan) and is effective in vitro against this organism. • c. […] Studies in humans have shown that adults with chronic hepatitis B or with chronic hepatitis C can be effectively treated by administering nitazoxanide 500 mg (in tablet form) twice daily for 24 weeks with the patients having undetectable virus DNA or RNA in their serum at the end of treatment.

chronic hepatitis C = test: Adults with chronic hepatitis C, serum virus RNA; format: in vivo, human; conditions: 500 mg tablet twice daily for 24 weeks
Source text: as §2

rotavirus [5] = test: Children with severe rotavirus disease, versus placebo; format: in vivo, human; conditions: 7.5 mg/kg twice daily oral, compared to placebo
[6] = Human subject with elevated liver enzymes due to autoimmune hepatitis; format: in vivo; conditions: 500 mg twice daily orally, 10-day course
Source text: as §2

chronic hepatitis B = test: Adults with chronic hepatitis B, serum virus DNA; format: in vivo, human; conditions: 500 mg tablet twice daily for 24 weeks
Source text: as §2

Giardia intestinalis = test: In vitro efficacy against Giardia intestinalis; format: cell-based; conditions: extra-cellular protozoan
Source text: as §2

[7] = system: PDI-4 of Giardia intestinalis; test: Binding to PDI-4 of Giardia intestinalis
Source text: as §2

rotavirus [8] = test: Cell culture studies of the mechanism by which tizoxanide suppresses rotavirus infection; format: cell-based
Source text: as §2

Neospora caninum [9] = test: In vitro efficacy against Neospora caninum (tizoxanide); format: cell-based; conditions: intracellular protozoan
Source text: as §2

[10] = molecular target: T1, PDI isolated from Neospora caninum (Neospora caninum, UniProt F0VAI6); test: Binding to PDI isolated from Neospora caninum
T1 construct: PDI isolated from Neospora caninum; from tissue; host or cells: Neospora caninum (parasite material)
T1 sequence (F0VAI6 entry or part of it): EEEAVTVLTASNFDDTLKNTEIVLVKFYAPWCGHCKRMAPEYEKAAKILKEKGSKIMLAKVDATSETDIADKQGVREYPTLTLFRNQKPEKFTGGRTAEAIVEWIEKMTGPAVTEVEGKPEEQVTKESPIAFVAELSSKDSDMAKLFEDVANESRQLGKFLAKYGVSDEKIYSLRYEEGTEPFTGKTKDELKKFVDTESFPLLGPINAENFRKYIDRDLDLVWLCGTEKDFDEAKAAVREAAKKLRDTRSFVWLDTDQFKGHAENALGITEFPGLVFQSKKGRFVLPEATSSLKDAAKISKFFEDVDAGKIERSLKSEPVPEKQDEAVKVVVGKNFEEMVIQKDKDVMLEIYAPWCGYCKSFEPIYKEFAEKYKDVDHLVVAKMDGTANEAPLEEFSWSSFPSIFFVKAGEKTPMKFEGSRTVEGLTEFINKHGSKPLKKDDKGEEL
Source text: as §2

[11] = system: pro-inflammatory cytokines: IL-2, IL-4, IL-5, IL-6, IL-8, IL-10, IL-12 and TNF-alpha; test: Secretion of pro-inflammatory cytokines; format: cell-based
Source text: as §2

SMILES: CC(=O)Oc1c(C)cccc1C(=O)Nc1ncc(Br)s1 [Compound 3]
- suppression of cytokines [1]: showed activity in suppressing cytokines

SMILES: O=C(Nc1cccc(F)c1)c1ccccc1O [Compound 12, N-(3-fluorophenyl)-2-hy-droxybenzamide]
- activity against Neospora caninum (Neospora caninum [2]): good activity
- activity against viruses [3]: good activity

SMILES: O=C(Nc1cccc(Cl)c1)c1ccccc1O [Compound 13, N-(3-chlorophenyl)-2-hy-droxybenzamide]
- activity against Neospora caninum (Neospora caninum [2]): good activity
- activity against viruses [3]: good activity

SMILES: CC(=O)Oc1ccccc1C(=O)Nc1ncc([N+](=O)[O-])s1 [nitazoxanide]
- replication of cell lines [4]: inhibits the replication
- virus RNA in serum at end of treatment (chronic hepatitis C): undetectable
- duration of illness (rotavirus [5]): significantly reduces the duration of illness
- liver transaminases [6]: reduced liver transaminases to normal levels
- virus DNA in serum at end of treatment (chronic hepatitis B): undetectable

SMILES: O=C(Nc1ncc([N+](=O)[O-])s1)c1ccccc1O [tizoxanide]
- efficacy in vitro (Giardia intestinalis): effective
- binding to PDI-4 [7]: binds
- VP7 maturation to a stage allowing glycosylation (rotavirus [8]): prevented VP7 from reaching a stage of maturation that allowed it to be glycosylated
- effect on viral transcription (rotavirus [8]): did not affect
- maturation of virus protein (rotavirus [8]): prevent maturation of virus protein
- effect on synthesis and/or maturation of VP7 (rotavirus [8]; single protein identified as VP7): selectively affects
- efficacy in vitro (Neospora caninum [9]): effective
- binding to PDI [10]: binds
- secretion of pro-inflammatory cytokines [11]: inhibits secretion
